ChEMBL document CHEMBL3745631, “Discovery of highly potent and selective Bruton's tyrosine kinase inhibitors: Pyridazinone analogs with improved metabolic stability” (Bioorg Med Chem Lett, 2016)

Legend:
[1] = target: DNA-dependent protein kinase catalytic subunit (Homo sapiens) (UniProt P78527); assay: Inhibition of DNA-PK (unknown origin) at 1 uM
hERG (KCNH2) = hERG (KCNH2) (Homo sapiens, UniProt Q12809); assay: Inhibition of human ERG at 10 uM
[2] = target: Serine/threonine-protein kinase 3 (Homo sapiens) (UniProt Q13188); assay: Inhibition of MST2 (unknown origin) at 1 uM
[3] = target: Tyrosine-protein kinase Fyn (Homo sapiens) (UniProt P06241); assay: Inhibition of Fyn (unknown origin) at 1 uM
[4] = target: Platelet-derived growth factor receptor beta (Homo sapiens) (UniProt P09619); assay: Inhibition of PDGFR_beta (unknown origin) at 1 uM
[5] = target: Serine/threonine-protein kinase B-raf (Homo sapiens) (UniProt P15056); assay: Inhibition of B-Raf (unknown origin) at 1 uM
[6] = target: Ribosomal protein S6 kinase alpha-5 (Homo sapiens) (UniProt O75582); assay: Inhibition of MSK1 (unknown origin) at 1 uM
[7] = Inhibition of anti-IgM-stimulated human B cell proliferation
[8] = target: Mitogen-activated protein kinase 11 (Homo sapiens) (UniProt Q15759); assay: Inhibition of p38 beta (unknown origin) at 1 uM
[9] = target: Fibroblast growth factor receptor 3 (Homo sapiens) (UniProt P22607); assay: Inhibition of FGFR3 (unknown origin) at 1 uM
[10] = target: Dual specificity tyrosine-phosphorylation-regulated kinase 3 (Homo sapiens) (UniProt O43781); assay: Inhibition of DYRK3 (unknown origin) at 1 uM
[11] = target: Activated CDC42 kinase 1 (Homo sapiens) (UniProt Q07912); assay: Inhibition of TNK2 (unknown origin) at 1 uM
[12] = target: Calcium/calmodulin-dependent protein kinase type 1 (Homo sapiens) (UniProt Q14012); assay: Inhibition of CaMKI (unknown origin) at 1 uM
[13] = target: Eukaryotic elongation factor 2 kinase (Homo sapiens) (UniProt O00418); assay: Inhibition of eEF-2K (unknown origin) at 1 uM
[14] = target: Aurora kinase A (Homo sapiens) (UniProt O14965); assay: Inhibition of AuroraA (unknown origin) at 1 uM
[15] = target: Ephrin type-B receptor 3 (Homo sapiens) (UniProt P54753); assay: Inhibition of EphB3 (unknown origin) at 1 uM
[16] = target: Phosphatidylinositol 4,5-bisphosphate 3-kinase catalytic subunit gamma isoform (Homo sapiens) (UniProt P48736); assay: Inhibition of PI3K-G (unknown origin) at 1 uM
[17] = target: Tyrosine-protein kinase Tec (Homo sapiens) (UniProt P42680); assay: Inhibition of TEC (unknown origin) at 1 uM
[18] = target: Mitogen-activated protein kinase 8 (Homo sapiens) (UniProt P45983); assay: Inhibition of JNK1 alpha1 (unknown origin) at 1 uM
[19] = target: Vascular endothelial growth factor receptor 1 (Homo sapiens) (UniProt P17948); assay: Inhibition of Flt1 (unknown origin) at 1 uM
[20] = target: Angiopoietin-1 receptor (Homo sapiens) (UniProt Q02763); assay: Inhibition of Tie2 (unknown origin) at 1 uM
[21] = target: Mitogen-activated protein kinase kinase kinase 8 (Homo sapiens) (UniProt P41279); assay: Inhibition of Cot (unknown origin) at 1 uM
[22] = target: Serine/threonine-protein kinase TAO1 (Homo sapiens) (UniProt Q7L7X3); assay: Inhibition of TAO1 (unknown origin) at 1 uM
[23] = target: Fibroblast growth factor receptor 1 (Homo sapiens) (UniProt P11362); assay: Inhibition of FGFR1 (unknown origin) at 1 uM
[24] = target: MAP kinase-activated protein kinase 2 (Homo sapiens) (UniProt P49137); assay: Inhibition of MAPKAPK2 (unknown origin) at 1 uM
[25] = target: Casein kinase I isoform delta (Homo sapiens) (UniProt P48730); assay: Inhibition of CK1 delta (unknown origin) at 1 uM
Mus musculus = assay: Clearance in mouse at 1 mg/kg, iv by LC-MS/MS analysis; type: ADME, organism-based; conditions: in vivo
[26] = target: Ribosomal protein S6 kinase alpha-2 (Homo sapiens) (UniProt Q15349); assay: Inhibition of Rsk3 (unknown origin) at 1 uM
[27] = target: Maternal embryonic leucine zipper kinase (Homo sapiens, UniProt Q14680); assay: Inhibition of MELK (unknown origin) at 1 uM
[28] = target: G protein-coupled receptor kinase 6 (Homo sapiens) (UniProt P43250); assay: Inhibition of GRK6 (unknown origin) at 1 uM
[29] = target: Mitogen-activated protein kinase kinase kinase 20 (Homo sapiens) (UniProt Q9NYL2); assay: Inhibition of ZAK (unknown origin) at 1 uM
[30] = target: cAMP-dependent protein kinase catalytic subunit PRKX (Homo sapiens) (UniProt P51817); assay: Inhibition of PrKX (unknown origin) at 1 uM
Cynomolgus monkey = assay: Clearance in cynomolgus monkey at 1 mg/kg, iv by LC-MS/MS analysis; type: ADME, organism-based, Macaca fascicularis; conditions: in vivo
[31] = target: Activin receptor type-2B (Homo sapiens) (UniProt Q13705); assay: Inhibition of ACVR2B (unknown origin) at 1 uM
[32] = target: Mitogen-activated protein kinase kinase kinase 9 (Homo sapiens) (UniProt P80192); assay: Inhibition of MLK1 (unknown origin) at 1 uM
[33] = system: RAF proto-oncogene serine/threonine-protein kinase (Homo sapiens), P04049 [Y340D,Y341D]; assay: Inhibition of RAF1 Y340D, Y341D mutant (unknown origin) at 1 uM
Rattus norvegicus = assay: Clearance in rat at 1 mg/kg, iv by LC-MS/MS analysis; type: ADME, organism-based; conditions: in vivo
[34] = target: Phosphorylase b kinase gamma catalytic chain, liver/testis isoform (Homo sapiens) (UniProt P15735); assay: Inhibition of PhK gamma2 (unknown origin) at 1 uM
[35] = target: Phosphatidylinositol 4,5-bisphosphate 3-kinase catalytic subunit alpha isoform (Homo sapiens) (UniProt P42336); assay: Inhibition of PI3KA (unknown origin) at 1 uM
[36] = target: Calcium/calmodulin-dependent protein kinase type IV (Homo sapiens) (UniProt Q16566); assay: Inhibition of CamK4(unknown origin) at 1 uM
[37] = target: Tyrosine-protein kinase CSK (Homo sapiens) (UniProt P41240); assay: Inhibition of CSK (unknown origin) at 1 uM
[38] = target: Calcium/calmodulin-dependent protein kinase type II subunit alpha (Homo sapiens) (UniProt Q9UQM7); assay: Inhibition of CamK2 alpha (unknown origin) at 1 uM
[39] = target: Fibroblast growth factor receptor 4 (Homo sapiens) (UniProt P22455); assay: Inhibition of FGFR4 (unknown origin) at 1 uM
[40] = target: Serine/threonine-protein kinase 16 (Homo sapiens) (UniProt O75716); assay: Inhibition of STK16 (unknown origin) at 1 uM
[41] = target: Calcium/calmodulin-dependent protein kinase kinase 2 (Homo sapiens) (UniProt Q96RR4); assay: Inhibition of CAMKK2 (unknown origin) at 1 uM

Chain of DNA-dependent protein kinase catalytic subunit (Homo sapiens) (P78527 whole entry): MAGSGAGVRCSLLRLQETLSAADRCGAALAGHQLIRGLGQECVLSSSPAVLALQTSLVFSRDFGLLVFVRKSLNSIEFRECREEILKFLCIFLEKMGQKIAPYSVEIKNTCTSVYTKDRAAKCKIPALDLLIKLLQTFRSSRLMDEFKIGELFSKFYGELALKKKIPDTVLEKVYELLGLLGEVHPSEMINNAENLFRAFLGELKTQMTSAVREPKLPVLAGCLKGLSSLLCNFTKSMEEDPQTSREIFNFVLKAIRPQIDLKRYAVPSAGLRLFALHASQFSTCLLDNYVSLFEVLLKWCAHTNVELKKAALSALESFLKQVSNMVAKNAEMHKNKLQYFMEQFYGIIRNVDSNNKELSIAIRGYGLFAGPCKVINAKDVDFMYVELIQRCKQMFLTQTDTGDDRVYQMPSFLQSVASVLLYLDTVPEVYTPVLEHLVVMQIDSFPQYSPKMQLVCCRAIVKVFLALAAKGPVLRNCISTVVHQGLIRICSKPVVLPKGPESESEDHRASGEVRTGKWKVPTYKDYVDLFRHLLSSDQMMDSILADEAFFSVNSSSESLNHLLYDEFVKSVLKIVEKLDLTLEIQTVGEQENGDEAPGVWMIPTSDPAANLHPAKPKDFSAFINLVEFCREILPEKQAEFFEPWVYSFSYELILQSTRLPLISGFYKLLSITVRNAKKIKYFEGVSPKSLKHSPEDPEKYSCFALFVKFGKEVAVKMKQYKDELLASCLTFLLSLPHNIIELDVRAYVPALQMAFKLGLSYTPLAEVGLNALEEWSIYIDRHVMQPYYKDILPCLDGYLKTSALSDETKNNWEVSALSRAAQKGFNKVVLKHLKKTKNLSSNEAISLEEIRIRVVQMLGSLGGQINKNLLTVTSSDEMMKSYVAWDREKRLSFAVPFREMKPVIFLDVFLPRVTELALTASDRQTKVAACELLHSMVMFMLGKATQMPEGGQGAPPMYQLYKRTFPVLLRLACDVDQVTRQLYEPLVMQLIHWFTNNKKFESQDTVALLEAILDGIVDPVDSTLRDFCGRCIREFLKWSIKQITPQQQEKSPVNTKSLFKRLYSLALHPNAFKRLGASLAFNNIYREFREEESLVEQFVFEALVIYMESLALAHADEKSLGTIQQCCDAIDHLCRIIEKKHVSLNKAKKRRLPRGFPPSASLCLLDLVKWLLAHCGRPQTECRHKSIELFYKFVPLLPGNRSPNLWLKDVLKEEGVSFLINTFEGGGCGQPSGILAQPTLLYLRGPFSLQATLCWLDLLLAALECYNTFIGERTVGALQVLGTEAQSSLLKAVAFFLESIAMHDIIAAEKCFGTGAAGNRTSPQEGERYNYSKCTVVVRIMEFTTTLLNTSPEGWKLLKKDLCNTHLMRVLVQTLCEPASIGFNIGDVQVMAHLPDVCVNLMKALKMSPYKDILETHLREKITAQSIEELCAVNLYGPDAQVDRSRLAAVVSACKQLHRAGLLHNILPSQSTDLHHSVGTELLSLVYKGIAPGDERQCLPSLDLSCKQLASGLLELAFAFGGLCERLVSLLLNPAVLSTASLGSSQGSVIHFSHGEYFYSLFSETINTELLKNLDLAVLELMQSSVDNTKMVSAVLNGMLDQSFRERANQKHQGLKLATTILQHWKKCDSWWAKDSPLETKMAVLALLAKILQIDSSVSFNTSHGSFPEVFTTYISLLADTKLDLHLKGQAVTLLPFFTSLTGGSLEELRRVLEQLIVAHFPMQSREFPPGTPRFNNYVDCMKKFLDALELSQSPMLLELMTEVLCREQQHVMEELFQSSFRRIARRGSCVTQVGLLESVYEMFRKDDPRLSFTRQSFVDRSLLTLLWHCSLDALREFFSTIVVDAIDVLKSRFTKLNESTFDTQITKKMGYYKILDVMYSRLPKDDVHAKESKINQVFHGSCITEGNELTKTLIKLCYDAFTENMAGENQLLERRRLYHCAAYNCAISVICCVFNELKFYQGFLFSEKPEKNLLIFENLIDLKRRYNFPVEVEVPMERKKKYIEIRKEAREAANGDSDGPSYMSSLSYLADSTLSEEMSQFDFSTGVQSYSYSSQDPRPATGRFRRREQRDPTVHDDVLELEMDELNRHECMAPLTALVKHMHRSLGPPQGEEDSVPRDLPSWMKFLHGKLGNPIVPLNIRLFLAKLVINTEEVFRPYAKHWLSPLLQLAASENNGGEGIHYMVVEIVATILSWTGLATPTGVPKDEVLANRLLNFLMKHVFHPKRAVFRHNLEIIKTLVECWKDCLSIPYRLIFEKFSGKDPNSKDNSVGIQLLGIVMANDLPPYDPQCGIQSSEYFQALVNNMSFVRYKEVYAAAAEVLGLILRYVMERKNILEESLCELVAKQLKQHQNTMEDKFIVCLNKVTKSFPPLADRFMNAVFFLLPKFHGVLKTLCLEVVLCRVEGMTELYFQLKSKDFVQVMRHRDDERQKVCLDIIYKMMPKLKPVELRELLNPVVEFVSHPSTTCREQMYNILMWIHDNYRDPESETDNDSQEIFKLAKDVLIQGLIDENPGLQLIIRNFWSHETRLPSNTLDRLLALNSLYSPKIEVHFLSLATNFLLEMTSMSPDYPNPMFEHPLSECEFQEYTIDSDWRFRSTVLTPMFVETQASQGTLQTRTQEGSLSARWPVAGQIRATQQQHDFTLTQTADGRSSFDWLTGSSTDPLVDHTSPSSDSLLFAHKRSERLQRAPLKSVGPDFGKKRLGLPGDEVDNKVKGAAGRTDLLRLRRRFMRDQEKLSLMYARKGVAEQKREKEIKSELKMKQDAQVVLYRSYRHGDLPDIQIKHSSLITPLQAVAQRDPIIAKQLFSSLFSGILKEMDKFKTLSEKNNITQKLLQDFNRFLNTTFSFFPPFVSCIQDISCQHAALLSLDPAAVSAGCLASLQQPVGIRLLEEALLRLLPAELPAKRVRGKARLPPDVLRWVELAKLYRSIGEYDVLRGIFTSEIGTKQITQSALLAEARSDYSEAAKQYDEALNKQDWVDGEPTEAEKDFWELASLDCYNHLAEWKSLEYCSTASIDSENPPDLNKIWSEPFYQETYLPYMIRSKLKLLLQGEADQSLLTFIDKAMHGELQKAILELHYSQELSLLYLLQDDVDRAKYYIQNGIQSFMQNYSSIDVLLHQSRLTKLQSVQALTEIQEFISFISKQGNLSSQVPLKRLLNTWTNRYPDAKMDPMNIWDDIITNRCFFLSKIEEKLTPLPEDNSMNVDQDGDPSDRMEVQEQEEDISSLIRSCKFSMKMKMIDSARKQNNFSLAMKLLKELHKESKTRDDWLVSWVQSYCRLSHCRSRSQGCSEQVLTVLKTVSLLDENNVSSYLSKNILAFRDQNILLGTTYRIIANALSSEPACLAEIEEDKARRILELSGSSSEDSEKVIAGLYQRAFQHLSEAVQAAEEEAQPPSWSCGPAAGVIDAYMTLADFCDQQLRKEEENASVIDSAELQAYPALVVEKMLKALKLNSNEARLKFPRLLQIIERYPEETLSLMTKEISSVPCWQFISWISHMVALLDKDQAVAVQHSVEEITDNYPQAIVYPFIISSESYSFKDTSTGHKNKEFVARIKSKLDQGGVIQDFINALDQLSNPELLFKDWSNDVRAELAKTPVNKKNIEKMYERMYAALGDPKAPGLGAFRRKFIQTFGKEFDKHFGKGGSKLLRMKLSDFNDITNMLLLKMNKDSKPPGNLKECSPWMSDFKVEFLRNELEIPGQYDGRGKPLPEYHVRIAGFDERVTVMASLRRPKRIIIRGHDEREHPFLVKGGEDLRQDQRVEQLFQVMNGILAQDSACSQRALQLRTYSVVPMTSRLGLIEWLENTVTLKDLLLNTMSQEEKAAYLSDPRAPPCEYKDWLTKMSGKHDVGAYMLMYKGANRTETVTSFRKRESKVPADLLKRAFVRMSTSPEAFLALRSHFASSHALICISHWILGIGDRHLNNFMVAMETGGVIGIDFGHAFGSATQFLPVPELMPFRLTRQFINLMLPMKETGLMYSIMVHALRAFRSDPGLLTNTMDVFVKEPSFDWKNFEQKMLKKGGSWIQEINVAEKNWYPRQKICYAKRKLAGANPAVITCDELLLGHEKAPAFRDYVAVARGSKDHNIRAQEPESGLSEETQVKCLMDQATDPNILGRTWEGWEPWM
Chain of Mitogen-activated protein kinase 8 (Homo sapiens) (P45983 whole entry): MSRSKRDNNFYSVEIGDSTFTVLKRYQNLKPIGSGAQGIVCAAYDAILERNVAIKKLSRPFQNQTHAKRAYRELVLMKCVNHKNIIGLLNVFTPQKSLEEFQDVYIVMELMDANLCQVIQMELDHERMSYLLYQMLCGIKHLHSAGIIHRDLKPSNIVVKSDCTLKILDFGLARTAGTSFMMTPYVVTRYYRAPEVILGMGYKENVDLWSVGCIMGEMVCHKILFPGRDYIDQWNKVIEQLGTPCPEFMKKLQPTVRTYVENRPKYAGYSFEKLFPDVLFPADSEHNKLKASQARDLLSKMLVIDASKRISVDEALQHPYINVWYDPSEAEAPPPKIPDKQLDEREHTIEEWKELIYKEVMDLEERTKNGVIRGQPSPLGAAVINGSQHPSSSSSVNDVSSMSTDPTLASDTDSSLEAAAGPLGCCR
Chain of Calcium/calmodulin-dependent protein kinase type 1 (Homo sapiens) (Q14012 whole entry, looked up): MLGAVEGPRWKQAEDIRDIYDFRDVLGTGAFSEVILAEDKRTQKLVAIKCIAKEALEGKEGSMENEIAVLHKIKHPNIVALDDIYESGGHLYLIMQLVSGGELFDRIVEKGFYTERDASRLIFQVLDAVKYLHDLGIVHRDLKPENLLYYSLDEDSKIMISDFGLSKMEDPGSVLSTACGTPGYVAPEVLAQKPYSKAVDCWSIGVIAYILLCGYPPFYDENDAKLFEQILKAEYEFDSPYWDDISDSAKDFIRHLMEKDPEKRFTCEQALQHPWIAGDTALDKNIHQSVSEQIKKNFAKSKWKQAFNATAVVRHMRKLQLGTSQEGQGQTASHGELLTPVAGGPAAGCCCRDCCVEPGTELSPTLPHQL

inhibition [1]: 8.5%
inhibition [2]: -4.1%
inhibition [3]: 7%
inhibition [4]: 8%
inhibition [5]: 0.6%
inhibition [6]: -6.5%
inhibition [8]: 8.7%
inhibition [9]: 1.8%
inhibition [10]: 3.3%
inhibition [11]: 15.9%
inhibition [12]: 6.3%
inhibition [13]: 3%
inhibition [14]: 1.1%
inhibition [15]: 2.5%
inhibition [16]: 2.5%
inhibition [17]: 87.9%
inhibition [18]: 8.7%
inhibition [19]: -0.7%
inhibition [20]: 7.4%
inhibition [21]: 20.1%
inhibition [22]: -3.8%
inhibition [23]: -3.1%
inhibition [24]: 10.8%
inhibition [25]: 4.7%
clearance (Mus musculus): 43 mL/min/kg
inhibition [26]: -0.6%
inhibition [27]: 50%
inhibition [28]: 4.7%
inhibition [29]: 0.8%
inhibition [30]: -9.9%
clearance (Cynomolgus monkey): 4 mL/min/kg
inhibition [31]: 4.5%
inhibition [32]: -7.5%
inhibition [33]: 5.5%
clearance (Rattus norvegicus): 5 mL/min/kg
inhibition [34]: 1.8%
inhibition [35]: 5.7%
inhibition [36]: 2.4%
inhibition [37]: 5.2%
inhibition [38]: 2.8%
inhibition [39]: -3.5%
inhibition [40]: 11%
inhibition [41]: 8.2%
SMILES: Cc1c(-c2cc(Nc3cc4n(n3)CCN(C)C4)c(=O)[nH]n2)ccc(F)c1NC(=O)c1cc2ccccc2s1
inhibition at 10 µM (hERG (KCNH2)): 27%
EC50 [7]: 6 nM
